Test results reported in patent US4049695A, “3-((3-Trifluoromethyl)phenyl)sulfonyl)-2-propenenitrile” (The Dow Chemical Company, priority 1976, dated 1977).

Tests used:
Experiment in all cases: in vitro agar Petri dish dilution test
Type in all cases: cell-based
S. typhosa = conditions: 100% inhibition, read-out: Minimum Inhibitory Concentration
From the text: (§1) The inventive product has antimicrobial activity. In the conventional in vitro agar Petri dish dilution test for determining bactericidal and fungicidal activity, the compound gave 100% inhibition against the indicated organisms at the following concentrations in parts per million, the tabulated values being indicated as minimum inhibitory concentrations (MIC).

Torulopsis Species = conditions: 100% inhibition, read-out: Minimum Inhibitory Concentration
From the text: as §1

[1] = system: Trichoderm Sp. Madison P-42; conditions: 100% inhibition, read-out: Minimum Inhibitory Concentration
From the text: as §1

C. pelliculosa = conditions: Hansenula anomala, 100% inhibition, read-out: Minimum Inhibitory Concentration
From the text: as §1

[2] = system: K. pneumoniae M-1 Midland Hospital; conditions: Klebsiella pneumoniae, 100% inhibition, read-out: Minimum Inhibitory Concentration
From the text: as §1

P. pullulans = conditions: 100% inhibition, read-out: Minimum Inhibitory Concentration
From the text: as §1

C. albicans = conditions: Candida albicans, 100% inhibition, read-out: Minimum Inhibitory Concentration
From the text: as §1

B. subtilis = conditions: Bacillus subtilis, 100% inhibition, read-out: Minimum Inhibitory Concentration
From the text: as §1

S. marcescens NIH = conditions: Serratia marcescens, 100% inhibition, read-out: Minimum Inhibitory Concentration
From the text: as §1

A. niger = conditions: Aspergillus niger, 100% inhibition, read-out: Minimum Inhibitory Concentration
From the text: as §1

E. coli ATCC 11229 = conditions: Escherichia coli, ATCC11229, 100% inhibition, read-out: Minimum Inhibitory Concentration
From the text: as §1

A. fumigatus = conditions: Aspergillus fumigatus, 100% inhibition, read-out: Minimum Inhibitory Concentration
From the text: as §1

C. ips = conditions: 100% inhibition, read-out: Minimum Inhibitory Concentration
From the text: as §1

P. chrysogenum = conditions: Penicillium chrysogenum, 100% inhibition, read-out: Minimum Inhibitory Concentration
From the text: as §1

T. mentagrophytes = conditions: Trichophyton mentagrophytes, 100% inhibition, read-out: Minimum Inhibitory Concentration
From the text: as §1

C. albicansNIH = conditions: Candida albicans, 100% inhibition, read-out: Minimum Inhibitory Concentration
From the text: as §1

[3] = system: Pseudomonas Sp. Strain 10; conditions: 100% inhibition, read-out: Minimum Inhibitory Concentration
From the text: as §1

S. aureus = conditions: Staphylococcus aureus, 100% inhibition, read-out: Minimum Inhibitory Concentration
From the text: as §1

Measured: MIC

N#CC=CS(=O)(=O)c1cccc(C(F)(F)F)c1 [3-((3-(Trifluoromethyl)phenyl)sulfonyl)-2-propenenitrile]
50 µg/mL: Torulopsis Species | [1] | [2] | P. pullulans | C. albicans | S. marcescens NIH | A. niger | E. coli ATCC 11229 | A. fumigatus | P. chrysogenum | C. albicansNIH
10 µg/mL: C. pelliculosa | C. ips | T. mentagrophytes
5 µg/mL: S. typhosa | B. subtilis | S. aureus
100 µg/mL: [3]
